According to patent US20170157260A1, “Glycosylated Polypeptide and Drug Composition Containing said Polypeptide” (Glytech, Inc., priority 2011, published 2017):

Legend:
[1] = test system: growth hormone (GH) production; experiment: GH production suppression test with rats; format: in vivo; details: Table 7 (Example 86), subcutaneous, 1 hour before GRF, plasma GH 5 minutes after GRF, vehicle 861
Experimental: This experimental line was carried out as a test line that can evaluate the pharmacological action of the glycosylated form on SSTR and its residence in blood after administration, with blood GH production amount as an indicator.
Moreover, GRF (GH releasing hormone, Growth hormone releasing factor) was used as the GH release enhancer. […] As heparin employed as the anticoagulant when collecting blood, Japanese Pharmacopeia heparin sodium injectable solution (Lot. B084, from Mochida Pharmaceutical Co., Ltd.) was used directly as stock solution.
As the control group, saline without glycosylated polypeptide was similarly administered (vehicle group). […] One hour after administration of the glycosylated form, i.e. after 50 minutes or more had passed under anesthesia, GRF was administered as the GH release enhancer to the tail vain at a dosage of 1 mL/kg with a glass syringe and an injection needle. Five minutes after administration of GRF, blood was collected from the rat cervical vein with a glass syringe containing heparin and an injection needle. 0.4 mL of the collected blood was left on ice for 20 minutes or more, then centrifuged (1,870×g, 4° C., 10 minutes), and 100 μL of the supernatant was taken as the plasma sample. As blank plasma, plasma obtained by similarly treating the blood collected from untreated rat cervical vein was employed. Plasma samples were frozen in storage until employed for measurement.
The plasma sample was diluted with the assay buffer supplied in the EIA kit to 20, 100, and 500-folds as measurement samples. […] By multiplying the results obtained and the dilution ratio, the GH concentration was calculated.

[2] = test system: rat gastrointestinal obstruction model; experiment: Gastrointestinal obstruction model: intestinal fluid weight; format: in vivo, rats; details: Table 9; jejunum, 1 hour after subcutaneous administration of 40 μM solution at 1 mL/kg, 18 hours after ligation
Experimental: (§1) This experimental line was carried out as a test line to evaluate the promotion of intestinal fluid absorption or the secretory suppressing action, using the change in the intestinal fluid weight in the jejunum after bowel obstruction as an indicator. Moreover, blood parameters of deviation enzymes amylase (pancreas), lactate dehydrogenase (LDH, liver), and creatine phosphokinase (CPK, skeletal muscle, cardiac muscle etc.) were measured as indicators of tissue disorders.
Anesthesia was introduced with inhalation of 2% isoflurane and laughing gas:oxygen=7:3, and this was maintained throughout the surgery. A median incision was made in the abdomen, and the jejunum at about 10 cm from the musculus suspensorius duodeni was ligated with a surgical suture. Then, the incision site was promptly sutured, and the rats were fasted until compound administration. […]
One hour after compound administration, a median incision was made in the abdomen under inhalation anesthesia, and 1.5 mL of blood was collected from the abdominal vena cava. […] The fluid and blood on the jejunum surface were removed with a paper towel, nerves, blood vessels, and fat attached to the jejunum was removed, this was cut into 6 cm lengths, and wet weight was measured. This was then dried at 36 degrees for 24 hours, and dry weight was measured.

[3] = test system: rat gastrointestinal obstruction model; experiment: Gastrointestinal obstruction model: blood parameters (amylase, LDH, CPK); details: Table 10; blood 1 hour after subcutaneous administration
Experimental: as §1
Anesthesia was introduced with inhalation of 2% isoflurane and laughing gas:oxygen=7:3, and this was maintained throughout the surgery. A median incision was made in the abdomen, and the jejunum at about 10 cm from the musculus suspensorius duodeni was ligated with a surgical suture. Then, the incision site was promptly sutured, and the rats were fasted until compound administration. In the sham treatment group, ligation of the jejunum was not performed, but the treatment of suturing the incision site after a median incision was made in the abdomen was performed.
Eighteen hours after the gastrointestinal obstruction surgery, this was subcutaneously administered into the dorsal cervix at a dosage of 1 mL/kg with a glass syringe and a 25 G injection needle (all from Terumo Corporation). As the vehicle group, saline without glycosylated polypeptide was similarly administered.
One hour after compound administration, a median incision was made in the abdomen under inhalation anesthesia, and 1.5 mL of blood was collected from the abdominal vena cava. Then, the ligated jejunum on the musculus suspensorius duodeni side was resected. The fluid and blood on the jejunum surface were removed with a paper towel, nerves, blood vessels, and fat attached to the jejunum was removed, this was cut into 6 cm lengths, and wet weight was measured. This was then dried at 36 degrees for 24 hours, and dry weight was measured.
The measuring methods employed were BG5B, UV-rate, and JSCC methods, respectively.

Row | Compound | GH ([1]; dose 10 nmol/kg) [ng/mL] | GH ([1]; dose 100 nmol/kg) [ng/mL] | Intestinal fluid weight [2] [mg] | amylase activity compared to the vehicle (in words) [3] | further results
1 | 29C(disialo)-SRIF28 [Example 13] | 497 | 88.5 | – | – | –
2 | C[C@@H](O)[C@@H]1NC(=O)[C@H](CCCCN)NC(=O)[C@@H](Cc2c[nH]c3ccccc23)NC(=O)[C@H](Cc2ccccc2)NC(=O)[C@@H](NC(=O)[C@H](N)Cc2ccccc2)CSSC[C@@H](C(=O)N[C@H](CO)[C@@H](C)O)NC1=O [Octreotide, reference compound] | – | – | 693 ± 48 | – | –
3 | C(disialo)-R-K-SRIF14 [Example 18] | – | – | – | low value compared to the vehicle | LDH activity compared to the vehicle (in words) [3]: low value compared to the vehicle
4 | N19C(disialo)-SRIF28 [Example 10] | 563 | 1.5 | – | – | –
5 | S1-2C(asialo)-SRIF28 [Example 28] | – | – | 566 ± 34 | – | –
6 | S1C(disialo)-SRIF28 [Example 1] | – | – | – | low value compared to the vehicle | –
